Where a name gives a salt, the structure may show the parent alone.
What was measured:
[1] = molecular target: T1, β-adrenergic receptor (Cavia porcellus, UniProt H0W3H1); assay: β-Adrenergic receptor blocking activity in vitro, isolated guinea pig atria preparation, isoproterenol as agonist; assay type: cell-based; conditions: isolated guinea pig atria (increase in rate), read-out: pA2 β (converted)
T1 construct: isolated guinea pig atria preparation; from tissue; host or cells: guinea pig atria
T1 sequence (H0W3H1 1-470): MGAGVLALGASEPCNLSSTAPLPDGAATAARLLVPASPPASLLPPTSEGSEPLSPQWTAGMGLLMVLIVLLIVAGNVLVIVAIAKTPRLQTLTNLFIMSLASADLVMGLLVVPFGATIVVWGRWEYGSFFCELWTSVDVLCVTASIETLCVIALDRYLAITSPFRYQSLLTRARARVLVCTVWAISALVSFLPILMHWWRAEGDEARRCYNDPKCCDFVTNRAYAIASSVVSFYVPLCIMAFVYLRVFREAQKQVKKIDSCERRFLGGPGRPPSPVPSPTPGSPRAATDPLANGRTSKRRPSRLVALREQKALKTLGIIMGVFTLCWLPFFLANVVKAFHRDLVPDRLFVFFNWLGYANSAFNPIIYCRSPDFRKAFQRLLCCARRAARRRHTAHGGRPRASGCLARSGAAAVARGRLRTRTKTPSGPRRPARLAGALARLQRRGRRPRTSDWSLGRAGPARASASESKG
Protocol: (§1) The following Example is illustrative of the α and β-adrenergic blocking activity and the direct spasmolytic activity for the compounds of this invention.
(§2) β-Adrenergic receptor blocking activity is determined in vitro by performing cumulative dose-response experiments in the isolated guinea pig atria preparation using isoproterenol as the agonist. The response (increase in rate) of the guinea pig atria preparation in the presence of logarithmically increasing concentrations of the compounds being tested are expressed as percent of the maximal attainable response. Relative antagonistic potency is expressed as a pA2 value, as defined above.

[2] = system: α-adrenergic receptor; assay: α-Adrenergic receptor blocking activity in vitro, isolated rabbit aortic strip preparation, norepinephrine as agonist; assay type: cell-based
Protocol: as §1
α-Adrenergic receptor blocking activity is determined in vitro by performing cumulative dose-response experiments in the isolated rabbit aortic strip preparation using norepinephrine as the agonist. The contractile response of the rabbit strip preparation in the presence of logarithmically increasing concentrations of the compounds being tested are expressed as percent of the maximal attainable response. Relative antagonistic potency is expressed as a pA2 value.

[3] = system: isolated guinea pig ileum preparation; assay: Direct spasmolytic activity in vitro, isolated guinea pig ileum preparation, barium chloride as agonist; assay type: cell-based
Protocol: as §1
as §2, with “Direct spasmolytic” for “β-Adrenergic receptor blocking”, “dose response” for “dose-response”, “ileum” for “atria”, “barium chloride” for “isoproterenol”, “The contractile” for “The”, “response” for “response (increase in rate)”

[4] = system: spontaneously hypertensive rats (SHR); assay: Antihypertensive activity in spontaneously hypertensive rats (SHR), systolic blood pressure; assay type: in vivo, rat (SHR, Okomoto-Aoki strain); conditions: oral 50 mg/kg
Protocol: The following Example illustrates the antihypertensive activity for the compounds of this invention. Antihypertensive activity is determined in spontaneously hypertensive rats (SHR) of the Okomoto-Aoki strain. Systolic blood pressure of the SHR is measured from the caudal artery by means of an indirect method utilizing a photocell transducer/tail cuff occluder system. Time response relationships are determined for each compound following an oral dose of 50 mg/kg. Data are expressed as mm of Hg decrease from control values. Statistical significance is determined using a 2 tailed "t" test comparing drug treatment response values to those obtained from concurrent vehicle treated animals.

SMILES	Kb [1]	pA2 α [2]	pA2 BaCl2 (Direct Spasmolytic Activity) [3]	lowers blood pressure (decrease from control values) ([4]; after 1 hour)	lowers blood pressure (decrease from control values) ([4]; after 4 hours)
Cc1ccc(N(CC2=NCCN2)c2cccc(O)c2)cc1 [phentolamine, reference compound]	> 10 µM				
NC(=O)c1cc(C(O)CN2CCC(n3c(=O)[nH]c4ccccc43)CC2)ccc1O (stereo not drawn) [Compound 2, 2-hydroxy-5-[1-hydroxy-2-[4-(2-oxo-1-benzimidazolinyl)piperidino]ethyl]benzamide hydrochloride monohydrate]	3.55 µM	6.70	< 4.20		
CCNC(=O)c1cc(C(O)CN2CCC(n3c(=O)[nH]c4ccccc43)CC2)ccc1O (stereo not drawn) [Compound 3, 2-hydroxy-5-[1-hydroxy-2-[4-(2-oxo-1-benzimidazolinyl)piperidino]ethyl]-N-ethylbenzamide hydrochloride]	> 4.17 µM	6.63	5.16	22 mm Hg	51 mm Hg
COC(=O)c1cc(C(O)CN2CCC(n3c(=O)[nH]c4ccccc43)CC2)ccc1O (stereo not drawn) [Compound 1, methyl 2-hydroxy-5-[1-hydroxy-2-[4-(2-oxo-1-benzimidazolinyl)piperidino]ethyl]benzoate hydrochloride]	1.95 µM	6.94	5.90		
